# From patent publication US5077292A, “(2-imidazolin-2-ylamino) tetrahydroquinoxalines and methods for using same” (priority 1989, dated 1991)
# Assays:
# [1] = tested on: Alpha 1 Adrenergic Receptors; experiment: Rabbit Aorta: Alpha 1 Adrenergic Receptors; format: cell-based, albino rabbit; conditions: rabbit aorta rings, 37° C., field stimulated; n = number of test runs
# Procedure: (§1) The tetrahydroquinoxalines produced in Examples 1 to 3 were tested for activity using the following in vitro methods.
# Rabbit Aorta: Alpha 1 Adrenergic Receptors
# (§2) Thoracic aorta and saphenous vein specimens were obtained from albino rabbits that were killed by CO2 inhalation. The aorta and saphenous vein were each cut into 3 mm rings. Tissues were placed in Krebs-Hensleit solution of the following composition (millimolar): NaCl 119; KCl 4.7; MgSO4 1.5, KH2 PO4 1.2; CaCl2 2.5; NaHCO3 25 and glucose 11.0. The solution also contained cocaine (0.1 millimolar) to block neuronal uptake and EDTA (30 micromolar) and ascorbic acid (5 micromolar) to prevent oxidation of the tetrahydroquinoxaline being tested. Tissues were hung in 10 ml organ baths and tension was measured via Grass FT03 force-displacement transducers. Resting tension was 1 g and 2 g for the saphenous vein and aorta, respectively. The solution was gassed with 95% O2 and 5% CO2 and maintained at 37° C. Tissues were allowed to equilibrate for 2 hours before stimulation and the cumulative addition of the tetrahydroquinoxaline being treated was started. Tissue stimulation was performed as with the rabbit vas deferens, described above. The contractions of the tissue were recorded isometrically as for the rabbit vas deferens assay. Cumulative concentration response curves were obtained and the EC50 valve developed for each tetrahydroquinoxaline tested in a manner similar to that for the rabbit vas deferens assay.
# [2] = tested on: Alpha 3 Adrenergic Receptors; experiment: Rabbit Saphenous Vein: Alpha 3 Adrenergic Receptors; format: cell-based, albino rabbit; conditions: rabbit saphenous vein rings, 37° C., field stimulated; n = number of test runs
# Procedure: as §1
# Rabbit Saphenous Vein: Alpha 3 Adrenergic Receptors
# as §2, with “Cumulative concentration response curves were obtained and the EC50 valve developed for each tetrahydroquinoxaline tested in a manner similar to that for the rabbit vas deferens assay.” left out
# [3] = molecular target: T1, Alpha 2 Adrenergic Receptors (Oryctolagus cuniculus, UniProt Q5ZQK3); experiment: Rabbit Vas Deferens: Alpha 2 Adrenergic Receptors; format: cell-based, New Zealand white rabbit; conditions: 35° C., field stimulated, 50% reduction in response height, n = number of test runs
# T1 construct: from tissue; host or cells: New Zealand white rabbit vas deferens, prostatic end, field stimulated
# T1 sequence (Q5ZQK3 1-451): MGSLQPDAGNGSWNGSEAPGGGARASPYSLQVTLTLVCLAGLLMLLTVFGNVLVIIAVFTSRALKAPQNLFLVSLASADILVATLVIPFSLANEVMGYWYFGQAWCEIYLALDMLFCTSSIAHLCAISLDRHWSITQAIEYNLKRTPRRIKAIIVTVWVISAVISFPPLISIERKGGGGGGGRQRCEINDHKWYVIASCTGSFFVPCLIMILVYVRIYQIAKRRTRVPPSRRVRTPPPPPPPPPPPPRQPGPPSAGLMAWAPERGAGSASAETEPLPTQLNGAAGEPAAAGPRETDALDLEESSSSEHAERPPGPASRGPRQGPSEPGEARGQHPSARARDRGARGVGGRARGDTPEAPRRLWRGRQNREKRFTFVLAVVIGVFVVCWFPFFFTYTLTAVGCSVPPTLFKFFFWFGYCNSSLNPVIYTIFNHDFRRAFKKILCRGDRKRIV
# Procedure: as §1
# Rabbit Vas Deferens: Alpha 2 Adrenergic Receptors
# New Zealand white rabbits (2-3 kg) were killed by CO2 inhalation and the vasa deferentia removed. The prostatic ends of the vasa deferentia (2-3 cm lengths) were mounted between platinum ring electrodes in 9 ml organ baths and bathed in Krebs bicarbonate solution of the following composition (millimolar): NaCl 118.0; KCl 4.7; CaCl2 2.5; MgSO4 1.2; KH2 PO4 1.2; glucose 11.0; NaHCO3 25.0; which solution was maintained at 35° C. and bubbled with 95% O2 and 5% CO2. The initial tension of the vas deferens was 0.5 g. The tissues were left to equilibrate for 30 minutes before stimulation was started. Vasa were then field stimulated (0.1 Hz, 2 ms pulse width at 90 mA) using a square wave stimulator (WPI A310 Accupulser with A385 stimulus). […] Cumulative concentration-response curves were obtained for the tetrahydroquinoxaline being tested with a 4 minute contact time at each concentration. The reduction in response height was measured and expressed as a percentage of the height of the response before the addition of tetrahydroquinxoaline. Concentration response curves for each of tetrahydroquinoxalines were plotted. The effective concentration required for a 50% reduction in response height, expressed as EC50, were obtained from these curves and are set forth below.
# [4] = tested on: intraocular pressure; experiment: effect on intraocular pressure, topical unilateral administration to rabbit eye; format: in vivo, New Zealand white rabbit; conditions: 0.1% (W/V)
# Procedure: The three (3) tetrahydroquinoxaline derivatives produced in accordance with Examples 1 to 3 were tested to determine what effect, if any, these materials have on intraocular pressure.
# Each of these materials was dissolved in distilled water at a concentration of 0.1% (W/V). Each of these solutions was administered topically and unilaterally to one eye of a drug-naive, unanesthetized New Zealand white rabbit in a single 50 micro liter drop. The contralateral eye received an equal volume of saline prior to determining the intraocular pressure after the mixture was administered. Also, approximately 10 micro liters of 0.5% (W/V) proparacaine (topical anesthetic) was applied to the corneas of each of the rabbits before determining intraocular pressure. As a control test, six (6) other drug-naive, unanesthetized New Zealand white rabbits were treated and tested as described above except that no tetrahydroquinoxaline derivative was included in the solutions administered to the eyes.
# The intraocular pressure was determined in both eyes of each rabbit before and after the solutions were administered. Such intraocular pressure determinations were made in the conventional manner using conventional equipment.
# [5] = tested on: mean arterial blood pressure; experiment: blood pressure effects (MAP) in renal test, intraduodenal administration; format: in vivo, Sprague-Dawley rats; conditions: test run 3 times
# Procedure: (§3) The tetrahydroquinoxaline produced in Example 1 was tested for renal and blood pressure effects using the following method.
# (§4) Young male (20-24 weeks old) Sprague-Dawley rats were used. Under ketamine (60 mg/kg b.wt. i.m.) and pentobarbital (i.p. to effect) anesthesia, medical grade plastic tubes were implanted into the abdominal aorta and vena cava via the femoral vessels. In addition, a Silastic-covered stainless steel cannula were sewn in the urinary bladder. After the surgery, the rats were housed individually and were allowed free access to food and water until the day of the experiment.
# (§5) For about 7 to 10 days before surgery and during recovery, the rats were accustomed to a restraining cage by placement in the cage for 2 to 3 hours every 2nd and 3rd day. The cage was designed for renal clearance studies (a model G Restrainer sold by Braintree Scientific, Inc., Braintree, Mass.). The animals' adjustment to the cage was judged by the stability of blood pressure and heart rate.
# For an experiment, a rat was placed in the restraining cage, and the arterial line was connected to a Statham pressure transducer and a Beckman Dynograph R61 to monitor the mean arterial blood pressure, hereinafter referred to as MAP. […] The volume of urine was measured gravimetrically. Body weight was recorded before and after the experiment. […]
# [6] = tested on: urine flow; experiment: renal effects (urine flow), intraduodenal administration; format: in vivo, Sprague-Dawley rats; conditions: test run 3 times
# Procedure: as §3, §4, §5
# For an experiment, a rat was placed in the restraining cage, and the arterial line was connected to a Statham pressure transducer and a Beckman Dynograph R61 to monitor the mean arterial blood pressure, hereinafter referred to as MAP. The venous line was connected to an infusion pump system for infusion of replacement fluid. The tetrahydroquinoxaline was administered intraduodenally by cannula. The bladder cannula was extended with a silastic tube to facilitate collection of urine in preweighed tubes. The volume of urine was measured gravimetrically. Body weight was recorded before and after the experiment.
# Throughout the experiments, 0.9% NaCl containing 10% polyfructosan (Inutest) and 1% sodium PAH was infused at a rate of 20 microliters/min. An equilibration period of 60 minutes was followed by two consecutive 30 minute control clearance periods. Then, the tetrahydroquinoxaline was administered for 90 minutes. Urine collection was resumed 10 minutes after the start of tetrahydroquinoxaline administration. By this time the washout of the bladder cannula dead space (approximately 200 microliters) was completed. Three additional clearance measurements were made. Blood samples (150 microliters) were collected at the midpoint of urine collections. Plasma was separated and saved for analyses, and the cells were resuspended in saline and returned to the animals. Water and sodium loss was carefully replaced i.v. by a variable speed infusion pump.
# [7] = tested on: dmPGE2-induced diarrhea; experiment: anti-diarrheal effects in cecectomized rats, dmPGE2-induced diarrhea; format: in vivo; conditions: p.o.
# Procedure: (§6) The tetrahydroquinoxaline produced in Example 1 was tested for anti-diarrheal effects and blood pressure effects using the following method.
# (§7) Cecectomies were performed in unfasted rats as follows. Under anesthesia with methohexital (60 mg/kg. i.p.), a laparotyphlectomy was initiated with a 2 cm midventral incision. The cecum was lifted from the abdominal cavity and exteriorized onto a gauze drape. The cecal apex was freed by severing the avascular area of the mesocecum. Next, a ligature of #1 silk suture was positioned so as to occulude the cecum and its vasculature without compromising ileo-colonic patency. After the ligature was secured and ileo-colonic patency confirmed, the cecum was resected, and the remaining exposed cecal mucosa was washed with saline and cauterized. The intestinal segment was then returned to the abdominal cavity, and the abdominal muscle facia closed with interrupted 4/0 chromic-gut sutures. The dermal incision was closed with 9 mm stainless steel wound clips that were removed approximately 1 week post surgery. An arterial line was also implanted into the abdominal aorta and vena cava via the femoral vessels, in a manner similar to that described in Example 10. Immediately following the surgical procedure, animals were returned to their cages and allowed free access to food and water. Animals were permitted at least 48 hour recovery period before being used in experiments.
# (§8) The cecectomized rats were put into individual wire-bottomed cages placed over sheets of clean paper, and deprived of food and water for the duration of the assay. The MAP was monitored, as described in Example 10, throughout the assay. Rats were given a 2 hour acclimatization period prior to the start of the assay in order to eliminate sporadic episodes of anxiety-induced defecation. During this period they were observed also for consistent occurrences of pelleted feces; an animal producing other than a pelleted stool was disqualified from the study.
# (§9) Diarrhea was induced with oral administration of 16,16-dimethyl prostaglandin E2 (dmPGE2) in 3.5% EtOH. The tetrahydro-quinoxaline was administered by gavage after the onset of diarrheal episodes. The cage papers were removed and examined at 30 minute intervals for dmPGE2 -induced diarrhea. Fecal output was recorded at each interval and fecal consistency is assigned a numerical score in each experimental group as follows: 1=normal pelleted stool; 2=soft-formed stools; 3=water stool and/or diarrhea. The fecal output index (FOI) is defined as the summation of the number of defecation episodes and their ranked consistency score within an observation period.
# [8] = tested on: mean arterial blood pressure; experiment: blood pressure effects (MAP) in anti-diarrheal test; format: in vivo, rats; conditions: p.o.
# Procedure: as §6, §7, §8, §9
smiles,measurement,setting,value
"CC1CNc2c(ccc(NC3=NCCN3)c2Br)N1 (racemic) [Example 2, (±)2-Methyl-5-bromo-6-(2-imidazolin-2-ylamino)-1,2,3,4-tetrahydroquinoxaline]",EC50,[1],6750 ± 116 nM
same,EC50,[2],581 ± 29 nM
same,EC50,[3],35.3 ± 3.9 nM
same,"Difference In Intraocular Pressure, Initial Effect On Treated Eye","[4]; single 50 micro liter drop, treated eye, initial effect, N.S. = not statistically significant",N.S.
same,"Difference In Intraocular Pressure, Maximum Effect on Treated Eye","[4]; single 50 micro liter drop, treated eye, maximum effect, N.S. = not statistically significant",-15.1 ± 3.3%
same,"Difference In Intraocular Pressure, Maximum Effect On Untreated Eye","[4]; single 50 micro liter drop, untreated (contralateral) eye, maximum effect, N.S. = not statistically significant",-8.6 ± 2.4%
same,effect on intraocular pressure in the treated eye (in words),[4]; treated rabbit eye,effective to reduce intraocular pressure in the treated rabbit eye
same,effect on intraocular pressure in the untreated eye (in words),[4]; untreated rabbit eye,reducing the intraocular pressure in the untreated rabbit eye
"Brc1c(NC2=NCCN2)ccc2c1NCCN2 [Example 1, 5-Bromo-6-(2-imidazolin-2-ylamino)-1,2,3,4-tetrahydroquinoxaline]",Increase in MAP,[5]; 0.3 mg/kg,2.5 mm Hg
same,Increase in MAP,[5]; 1 mg/kg,8 mm Hg
same,Increase in Urine Flow,[6]; 0.01 mg/kg,0 microliters/min./100 g of body
same,Increase in Urine Flow,[6]; 0.03 mg/kg,4 microliters/min./100 g of body
same,Increase in Urine Flow,"[6]; 0.1 mg/kg, P less than 0.05",16 microliters/min./100 g of body
same,Increase in Urine Flow,"[6]; 0.3 mg/kg, P less than 0.05",24 microliters/min./100 g of body
same,Increase in Urine Flow,"[6]; 1 mg/kg, P less than 0.05",32 microliters/min./100 g of body
same,Percent Reduction in FOI versus dmPGE2 Control,[7]; 0.01 mg/kg,17%
same,Percent Reduction in FOI versus dmPGE2 Control,[7]; 0.03 mg/kg,60%
same,Percent Reduction in FOI versus dmPGE2 Control,[7]; 0.10 mg/kg,57%
same,Percent Reduction in FOI versus dmPGE2 Control,[7]; 0.30 mg/kg,76%
same,Percent Reduction in FOI versus dmPGE2 Control,[7]; 1.00 mg/kg,98%
same,Percent Reduction in FOI versus dmPGE2 Control,[7]; 3.00 mg/kg,98%
same,Percent Reduction in FOI versus dmPGE2 Control,[7]; 10.00 mg/kg,100%
same,anti-diarrheal effects (in words),"[7]; cecectomized rats, dmPGE2-induced diarrhea",substantial anti-diarrheal effects
same,EC50,[1],1130 ± 207 nM
same,EC50,[2],92 ± 19 nM
same,Increase in MAP,[8]; 0.01 mg/kg,0 mm Hg
same,Increase in MAP,[8]; 0.03 mg/kg,0 mm Hg
same,Increase in MAP,[8]; 0.10 mg/kg,0 mm Hg
same,Increase in MAP,[8]; 0.30 mg/kg,0 mm Hg
same,Increase in MAP,[8]; 1.00 mg/kg,0 mm Hg
same,Increase in MAP,[8]; 3.00 mg/kg,10 mm Hg
same,Increase in MAP,[8]; 10.00 mg/kg,25 mm Hg
same,effect in blood pressure accompanying anti-diarrheal effects (in words),[8]; cecectomized rats,no or a relatively minimal effect in blood pressure
same,EC50,[3],1.75 nM
same,effect on intraocular pressure in the treated eye (in words),[4]; treated rabbit eye,effective to reduce intraocular pressure in the treated rabbit eye
same,initial effect on intraocular pressure in the treated eye (in words),"[4]; treated rabbit eye, initial effect",raising the intraocular pressure
